Values after ≈ are worked out from the molar mass of the structure shown. Where two headings read alike, the source gives them in different places.
Tests used:
[1] = biological target: histone deacetylase (HeLa nuclear extracts); experiment: In vitro assay for inhibition of histone deacetylase with fluorescent-labelled substrate (Fluor de Lys); assay type: biochemical
Text: The in vitro assay for inhibition of histone deacetylase (see example C.1) measures the inhibition of HDAC enzymatic activity obtained with the compounds of formula (I).
The HDAC Fluorescent Activity Assay/Drug Discovery Kit of Biomol (cat. No: AK-500-0001) was used. The HDAC Fluorescent Activity Assay is based on the Fluor de Lys (Fluorogenic Histone deAcetylase Lysyl) substrate and developer combination. The Fluor de Lys substrate, comprises an acetylated lysine side chain. Deacetylation of the substrate sensitizes the substrate so that, in the second step, treatment with the Fluor de Lys developer produces a fluorophore.
HeLa nuclear extracts (supplier: Biomol) were incubated at 60 μg/ml with 75 μM of substrate. The Fluor de Lys substrate was added in a buffer containing 25 mM Tris, 137 mM NaCl, 2.7 mM KCl and 1 mM MgCl2.6H2O at pH 7.4. After 30 min, 1 volume of the developer was added. The fluorophore was excited with 355 nm light and the emitted light (450 nm) was be detected on a fluorometric plate reader.
For each experiment, controls (containing HeLa nuclear extract and buffer), a blank incubation (containing buffer but no HeLa nuclear extract) and samples (containing compound dissolved in DMSO and further diluted in buffer and HeLa nuclear extract) were run in parallel. In first instance, compounds were tested at a concentration of 10^−5M. […] All sample were tested 4 times. In each test the blank value was subtracted from both the control and the sample values. The control sample represented 100% of substrate deactylation. For each sample the fluorescence was expressed as a percentage of the mean value of the controls. […] Herein the effects of test compounds are expressed as pIC50 (the negative log value of the IC50-value) (see Table F-2).

[2] = tested on: A2780 ovarian carcinoma cells; experiment: Antiproliferative activity on A2780 cells (MTT); assay type: cell-based; settings: Homo sapiens, 96 h, four days of incubation, read-out: Cellular activity pIC50 C.2 (converted)
Description: Cellular activity of the compounds of formula (I) was determined on A2780 tumour cells using a colorimetric assay for cell toxicity or survival (Mosmann Tim, Journal of Immunological Methods 65: 55-63, 1983)(see example C.2).
All compounds tested were dissolved in DMSO and further dilutions were made in culture medium. Final DMSO concentrations never exceeded 0.1% (v/v) in cell proliferation assays. Controls contained A2780 cells and DMSO without compound and blanks contained DMSO but no cells. MTT was dissolved at 5 mg/ml in PBS. A glycine buffer comprised of 0.1 M glycine and 0.1 M NaCl buffered to pH 10.5 with NaOH (1 N) was prepared (all reagents were from Merck).
The human A2780 ovarian carcinoma cells (a kind gift from Dr. T. C. Hamilton [Fox Chase Cancer Centre, Pennsylvania, USA]) were cultured in RPMI 1640 medium supplemented with 2 mM L-glutamine, 50 μg/ml gentamicin and 10% fetal calf serum. Cells were routinely kept as monolayer cultures at 37° C. in a humidified 5% CO2 atmosphere. Cells were passaged once a week using a trypsin/EDTA solution at a split ratio of 1:40. All media and supplements were obtained from Life Technologies. Cells were free of mycoplasma contamination as determined using the Gen-Probe Mycoplasma Tissue Culture kit (supplier: BioMérieux).
Cells were seeded in NUNC™ 96-well culture plates (Supplier: Life Technologies) and allowed to adhere to the plastic overnight. Densities used for plating were 1500 cells per well in a total volume of 200 μl medium. After cell adhesion to the plates, medium was changed and drugs and/or solvents were added to a final volume of 200 μl. Following four days of incubation, medium was replaced by 200 μl fresh medium and cell density and viability was assessed using an MTT-based assay. To each well, 25 μl MTT solution was added and the cells were further incubated for 2 hours at 37° C. The medium was then carefully aspirated and the blue MTT-formazan product was solubilized by addition of 25 μl glycine buffer followed by 100 μl of DMSO. […] Within an experiment, the results for each experimental condition are the mean of 3 replicate wells. For initial screening purposes, compounds were tested at a single fixed concentration of 10^−6 M. For active compounds, the experiments were repeated to establish full concentration-response curves. For each experiment, controls (containing no drug) and a blank incubation (containing no cells or drugs) were run in parallel. The blank value was subtracted from all control and sample values. For each sample, the mean value for cell growth (in absorbance units) was expressed as a percentage of the mean value for cell growth of the control. […] Herein the effects of test compounds are expressed as pIC50 (the negative log value of the IC50-value)(see Table F-2).

[3] = Solubility at pH 2.3 (chemiluminescent nitrogen detector); assay type: physicochemical; settings: pH 2.3, aqueous buffer; read-out: Solubility C.3.c. pH = 2.3
Text: In a third method the solubility of a compound at different pH's can be measured with the use of a Chemiluminescent Nitrogen Detector (see example C.3.c).
The solubility of a compound, at pH 2.3, can also be measured with the use of a chemiluminescent nitrogen detector (see Table F-2).

p21 promoter = experiment: p21 induction in vivo method C.6.c (reporter tumour fluorescence in nude mice); settings: 20-40 mpk daily during 6 days, orally or intraveinally, ranked inactive, weaker, identical or better than R306465
Description: The last method is an in vivo method wherein mice are used for screening the pharmaceutical activity of a compound. The above described stably transformed tumour cells can be administered to mice in an amount sufficient to effect production of a tumour. After the tumour cells had sufficient time to form a tumour, a potentially active compound can be administered to the animals and the effect of said compound on the tumour cells is evaluated by measuring the expression of the reporter gene. Incubation with pharmaceutical active compounds will result in an increase of reporter gene expression compared to the control levels (see example C.6.c.)
A selected clone was injected subcutaneous (10^7 cells/200 μl) into the flank of nude mice and a calliper measurable tumour was obtained after 12 days. From day 12 on, animals were dosed, orally or intraveinally, daily during 6 days with solvent and 20-40 mpk compound (4-10 animals each). Tumours were evaluated for fluorescence by the in-house developed Automated Whole Body Imaging System (Fluorescent stereomicroscope type Olympus® SZX12 equipped with a GFP filter and coupled to a CCD camera type JAI® CV-M90 controlled by a software package based on the IMAQ Vision Software from National Instruments®). As reference, compound R306465 (WO03/76422) was used.

[4] = not given; remark: listed apart in the source
[5] = Kinetic solubility in aqueous media C.3.a (nephelometer); assay type: physicochemical; settings: aqueous buffer, kinetic from dmso stock; phosphate citrate buffer pH 7.4, turbidity; read-out: Kinetic solubility score (C.3.a)
Description: The solubility of a compound measures the ability of a compound to stay in solution. In a first method the ability of a compound to stay in aqueous solution upon dilution (see example C.3.a) is measured. DMSO-stock solutions are diluted with a single aqueous buffer solvent in 3 consecutive steps. For every dilution turbidity is measured with a nephelometer.
In the first dilution step, 10 μl of a concentrated stock-solution of the active compound, solubilized in DMSO (5 mM), was added to 100 μl phosphate citrate buffer pH 7.4 and mixed. In the second dilution step, an aliquot (20 μl) of the first dilution step was further dispensed in 100 μl phosphate citrate buffer pH 7.4 and mixed. Finally, in the third dilution step, a sample (20 μl) of the second dilution step was further diluted in 100 μl phosphate citrate buffer pH 7.4 and mixed. All dilutions were performed in 96-well plates. Immediately after the last dilution step the turbidity of the three consecutive dilution steps were measured with a nephelometer. Dilution was done in triplicate for each compound to exclude occasional errors. Based on the turbidity measurements a ranking is performed into 3 classes. Compounds with high solubility obtained a score of 3 and for this compounds the first dilution is clear. Compounds with medium solubility obtained a score of 2. […]

[6] = Metabolic stability with rat hepatocytes cell culture C.5.b; assay type: in vitro ADME; settings: male, Sprague Dowley, rat hepatocyte cell cultures, read-out: in vitro half-life
Text: Metabolism of drugs means that a lipid-soluble xenobiotic or endobiotic compound is enzymatically transformed into (a) polar, water-soluble, and excretable metabolite(s). The major organ for drug metabolism is the liver. […] However, some metabolites may have enhanced activity or toxic effects. Thus drug metabolism may include both “detoxication” and “toxication” processes. One of the major enzyme systems that determine the organism's capability of dealing with drugs and chemicals is represented by the cytochrome P450 monooxygenases, which are NADPH dependent enzymes. Metabolic stability of compounds can be determined in vitro with the use of subcellular human tissue (see example C.5.a.). Here metabolic stability of the compounds is expressed as % of drug metabolised after 15 minutes incubation of these compounds with microsomes. Quantitation of the compounds was determined by LC-MS analysis. Metabolic stability of compounds can also be determined by calculating the half live of compounds in rat hepatocyte cells (see example C.5.b.).
Rat hepatocytes were isolated from male Sprague Dowley rats. The compounds were dissolved to a 5 mM stock solution in 100% DMSO and incubated at a final concentration of 5 μM for 0, 15, 30, 60 and 120 min with rat hepatocyte cell cultures (0.5 million viable cells/0.5 ml) using 24-well plates.
Samples were prepared for LC-MS by addition of two volumes of DMSO. The samples were thoroughly shaken and subsequently centrifuged at 900 g for 10 min (room temperature). All experiments were performed in triplicate. Of the resulting supernatant 50 μl was analysed by LC-MS.
For LC-MS, elution of samples was performed on a Hypersil BDS C18 column (50×4.6 mm, 5 μm, Thermohypersil, UK). […]
Total injection volume of samples was 50 μL. […] The mass spectrometer was operated in positive ion mode in SIM adjusted to the mass of M+H with a scan width of 1 Da for quantification purposes. […] The metabolic stability of compounds in rat hepatocytes was expressed as in vitro half-lives. […]

Row | SMILES | Enzymatic activity pIC50 C.1 [1] | IC50 [2] [nM] | solubility [3] [µg/mL] | melting point [4] [°C] | half-life at 5 μM [6] [min] | further results
1 | COc1cc(N)c(Cl)cc1C(=O)NC1CCN(CCCOc2ccc(F)cc2)CC1OC (centres unmarked) [Cisapride] |  |  |  |  |  | % metabolism (human, 15 min, 5 μM): 45%
2 | Cn1nc(CNCC2CCN(c3ncc(C(=O)NO)cn3)CC2)c2ccccc21 [Compound 1] | 8.4 | 20 | 2500 (≈ 6.32 mM) | 197 |  | tumour fluorescence ranked against R306465 (p21 promoter): better than R306465
3 | Cn1nnc2ccc(CNCC3CCN(c4ncc(C(=O)NO)cn4)CC3)cc21 [Compound 2] | 8.1 | 251 | 2100 (≈ 5.3 mM) | 206 |  | solubility kinetic [5]: > 455 µM
4 | O=C(NO)c1cnc(N2CCC(CNCc3n[nH]c4ccccc34)CC2)nc1 [Compound 22] | 9.4 | 79.4 | 2200 (≈ 5.77 mM) |  | 30 to 55 | 
5 | O=C(NO)c1cnc(N2CCN(S(=O)(=O)c3ccc4ccccc4c3)CC2)nc1 [Compound R306465, reference compound] |  |  |  |  | 8 | 
6 | CCCO [propanol] |  |  |  |  |  | % metabolism (15 min incubation with microsomes, compound 5 μM): 25%

Reference: patent publication US7834011B2, “Heterocyclylalkyl derivatives as novel inhibitors of histone deacetylase” (Janssen Pharmaceutica N.V., priority 2006, dated 2010)
